Patent publication US20120016011A1, “RNA Interference Mediated Inhibition of Connective Tissue Growth Factor (CTGF) Gene Expression Using Short Interfering Nucleic Acid (siNA)” (Merck Sharp & Dohme Corp., priority 2009, published 2012)
[invAb] = inverted abasic unit; d = 2'-deoxy (DNA); m = 2'-O-methyl; r = 2'-OH (RNA); f = 2'-fluoro

Experiments:
CTGF mRNA [1] = test: CTGF mRNA knockdown (Taqman RT-PCR) after siNA transfection of human NHLF cells; format: cell-based; conditions: 10 nM siNA, 24 hrs, average of 3 experiments, vs non-targeting control
Experimental: NHLF (Normal human lung fibroblasts; Lonza cat# CC-2512): Cells were cultured at 37° C. in the presence of 5% CO2 and grown in Fibroblast Basal Medium (Lonza cat# CC-3132) supplemented with 2% FBS and growth factors (provided with the kit) and 100 μg/mL of streptomycin and 100 U/mL penicillin.
(§1) Cells were plated in all wells of a tissue-culture treated, 96-well plate at a final count of 5000 cells/well in […], of the appropriate culture media. The cells were cultured for 24 hours after plating at 37° C. in the presence of 5% CO2.
(§2) After 24 hours, complexes containing siNA and RNAiMax were created as follows: A solution of RNAiMax diluted 33-fold in OPTI-MEM was prepared. In parallel, solutions of the siNAs for testing were prepared to a final concentration of 120 nM in OPTI-MEM. After incubation of RNAiMax/OPTI-MEM solution at room temperature for 5 min, an equal volume of the siNA solution and the RNAiMax solution were added together for each of the siNAs.
(§3) This solution was incubated at room temperature for 20 minutes. After incubation, 20 uL of the solution was added to each of the relevant wells. The final concentration of siNA in each well was 10 nM and the final volume of RNAiMax in each well was 0.3 ul.
(§4) The time of incubation with the RNAiMax-siNA complexes was 24 hours and there was no change in media between transfection and harvesting, unless otherwise indicated.
(§5) RNA was extracted from a 96-well plate using the TaqMan® Gene Expression Cells-to-CT™ Kit (Cat# 4399002) with a modified protocol. Briefly, a 60 uL (1 plate) or 110 uL (2 plates) of the Lysis Solution with DNase I was dispensed into each well of the Lysis Buffer Plate (twin.tec full skirt plate). The lysis buffer and stop plates were stored at 4° C. until the cells were washed.
(§6) The plate was spun at 1100 rpm for 5 minutes. The culture medium was aspirated and discarded from the wells of the culture plate. The lysis was performed automatically using a BioMek FX instrument and method. After the Biomek method was completed, the lysis plate was incubated for 2 min. at room temperature. The lysis plate can be stored for 2 hours at 4° C., or at −20° C. or −80° C. for two months.
(§7) Each well of the reverse transcription plate required 10 uL of 2× reverse transcriptase Buffer, 1 uL of 20× reverse transcription enzyme and 2 uL of nuclease-free water. The reverse transcription master mix was prepared by mixing 2× reverse transcription buffer, 20× reverse transcription enzyme mix, and nuclease-free water. 13 uL of the reverse transcription master mix was dispensed into each well of the reverse transcription plate (semi-skirted). A separate reverse transcription plate was prepared for each cell plate. The plate was loaded onto a Biomek NX or Biomek FX Dual -96 and the Biomek method was run. The program is programmed to automatically added 7 uL of lysate from the cell lysis procedure described above into each well of the reverse transcription plate. The plate is sealed and spun on a centrifuge (1000 rpm for 30 seconds) to settle the contents to the bottom of the reverse transcription plate. The plate is placed in a thermocycler at 37° C. for 60 min, 95° C. for 5 min, and 4° C. until the plate is removed from the thermocycler. Upon removal, if not used immediately, the plate was frozen at −20° C.
(§8) A series of probes and primers were used to detect the various mRNA transcripts of the genes of β-Actin (human cell line only), and of CTGF and GAPDH in mouse and human cell lines. All Taqman probes and primers for the experiments here-in described were supplied as pre-validated sets by Applied Biosystems, Inc. (see Table 3).
The assays were performed on an ABI 7900 instrument, according to the manufacturer's instructions. A TaqMan Gene Expression Master Mix (provided in the Cells-to-CT™, Applied Biosystems, Cat # 4399002) was used. The PCR reactions were carried out at 50° C. for 2 min, 95° C. for 20 min followed by 40 cycles at 95° C. for 15 secs and 60° C. for 1 min. […]

CTGF mRNA [2] = test: CTGF mRNA knockdown (Taqman RT-PCR) after siNA transfection of mouse NIH 3T3 cells; format: cell-based; conditions: mouse NIH3T3 cells, 10 nM siNA, 24 hrs, average of 3 experiments, vs non-targeting control
Experimental: NIH 3T3 (mouse; ATCC cat# CRL-1658): Cells were cultured at 37° C. in the presence of 5% CO2 and grown in Dulbecco's modified Eagle's medium (DMEM) with 4 mM L-glutamine adjusted to contain 1.5 g/L sodium bicarbonate and 4.5 g/L glucose and supplemented with fetal bovine serum at a final concentration of 10%, 100 μg/mL of streptomycin, and 100 U/mL penicillin.
as §1, §2, §3, §4, §5, §6, §7, §8
The assays were performed on an ABI 7900 instrument, according to the manufacturer's instructions. A TaqMan Gene Expression Master Mix (provided in the Cells-to-CT™, Applied Biosystems, Cat # 4399002) was used. […]

Substance	% KD Human (CTGF mRNA [1])	% KD Mouse (CTGF mRNA [2])
48049-DC: siNA duplex; sense SEQ ID NO: 63 B cGuGuGcAccGccAAAGAu TTB; antisense SEQ ID NO: 64 AUCuuuGGcGGuGcAcAcGUU (sense CGUGUGCACCGCCAAAGAUTT; antisense AUCUUUGGCGGUGCACACGUU; sense: DNA at AGT, 2'-fluoro at CU, [invAb] at 5' end, 3' end, backbone not given here; antisense: sugars from the 5' end rrrfffmmfmmfmfmfmfmmm, backbone not given here)	27 ± 2%	−9 ± 6%
48080-DC: siNA duplex; sense SEQ ID NO: 125 B AGGAAGAuGuAcGGAGAcA TTB; antisense SEQ ID NO: 126 UGUcuccGuAcAucuuccuUU (sense AGGAAGAUGUACGGAGACATT; antisense UGUCUCCGUACAUCUUCCUUU; sense: DNA at AGT, 2'-fluoro at CU, [invAb] at 5' end, 3' end, backbone not given here; antisense: sugars from the 5' end rrrffffmfmfmfffffffmm, backbone not given here)	71 ± 2%	56 ± 2%
48074-DC: siNA duplex; sense SEQ ID NO: 113 B GGAGGAAcuAucccAccAA TTB; antisense SEQ ID NO: 114 UUGGuGGGAuAGuuccuccUU (sense GGAGGAACUAUCCCACCAATT; antisense UUGGUGGGAUAGUUCCUCCUU; sense: DNA at AGT, 2'-fluoro at CU, [invAb] at 5' end, 3' end, backbone not given here; antisense: sugars from the 5' end rrrmfmmmmfmmfffffffmm, backbone not given here)	3 ± 9%	21 ± 2%
48051-DC: siNA duplex; sense SEQ ID NO: 67 B GGGuGuGUGAcGAGcccAA TTB; antisense SEQ ID NO: 68 UUGGGcucGucAcAcAcccUU (sense GGGUGUGUGACGAGCCCAATT; antisense UUGGGCUCGUCACACACCCUU; sense: sugars from the 5' end dddfdfddddfdddfffdddd, [invAb] at 5' end, 3' end, backbone not given here; antisense: sugars from the 5' end rrrmmfffmffmfmfmfffmm, backbone not given here)	15 ± 10%	14 ± 11%
48050-DC: siNA duplex; sense SEQ ID NO: 65 B cuGccuGGuccAGAccAcA TTB; antisense SEQ ID NO: 66 UGUGGucuGGAccAGGcAGUU (sense CUGCCUGGUCCAGACCACATT; antisense UGUGGUCUGGACCAGGCAGUU; sense: DNA at AGT, 2'-fluoro at CU, [invAb] at 5' end, 3' end, backbone not given here; antisense: sugars from the 5' end rrrmmfffmmmffmmmfmmmm, backbone not given here)	3 ± 18%	−13 ± 5%
48052-DC: siNA duplex; sense SEQ ID NO: 69 B GcGAGGucAuGAAGAAGAA TTB; antisense SEQ ID NO: 70 UUCuucuucAuGAccucGcUU (sense GCGAGGUCAUGAAGAAGAATT; antisense UUCUUCUUCAUGACCUCGCUU; sense: DNA at AGT, 2'-fluoro at CU, [invAb] at 5' end, 3' end, backbone not given here; antisense: sugars from the 5' end rrrffffffmfmmffffmfmm, backbone not given here)	27 ± 16%	41 ± 4%
48043-DC: siNA duplex; sense SEQ ID NO: 51 B GAcAuAccGAGcuAAAuuc TTB; antisense SEQ ID NO: 52 GAAuuuAGcucGGuAuGucUU (sense GACAUACCGAGCUAAAUUCTT; antisense GAAUUUAGCUCGGUAUGUCUU; sense: DNA at AGT, 2'-fluoro at CU, [invAb] at 5' end, 3' end, backbone not given here; antisense: sugars from the 5' end rrrfffmmfffmmfmfmffmm, backbone not given here)	57 ± 7%	48 ± 0%
48061-DC: siNA duplex; sense SEQ ID NO: 87 B AcucAuuAGAcuAuAAcuu TTB; antisense SEQ ID NO: 88 AAGuuAuAGucuAAuGAGuUU (sense ACUCAUUAGACUAUAACUUTT; antisense AAGUUAUAGUCUAAUGAGUUU; sense: DNA at AGT, 2'-fluoro at CU, [invAb] at 5' end, 3' end, backbone not given here; antisense: sugars from the 5' end rrrffmfmmfffmmfmmmfmm, backbone not given here)	30 ± 12%	73 ± 5%
48075-DC: siNA duplex; sense SEQ ID NO: 115 B ccucAGAcAcuGGuuucGA TTB; antisense SEQ ID NO: 116 UCGAAAccAGuGucuGAGGUU (sense CCUCAGACACUGGUUUCGATT; antisense UCGAAACCAGUGUCUGAGGUU; sense: DNA at AGT, 2'-fluoro at CU, [invAb] at 5' end, 3' end, backbone not given here; antisense: sugars from the 5' end rrrmmmffmmfmfffmmmmmm, backbone not given here)	36 ± 9%	69 ± 2%
48064-DC: siNA duplex; sense SEQ ID NO: 93 B AGuGGAGAuGccAGGAGAA TTB; antisense SEQ ID NO: 94 UUCuccuGGcAucuccAcuUU (sense AGUGGAGAUGCCAGGAGAATT; antisense UUCUCCUGGCAUCUCCACUUU; sense: DNA at AGT, 2'-fluoro at CU, [invAb] at 5' end, 3' end, backbone not given here; antisense: sugars from the 5' end rrrffffmmfmfffffmffmm, backbone not given here)	6 ± 6%	58 ± 3%
48070-DC: siNA duplex; sense SEQ ID NO: 105 B AcuGGuuucGAGAcAGuuu TTB; antisense SEQ ID NO: 106 AAAcuGucucGAAAccAGuUU (sense ACUGGUUUCGAGACAGUUUTT; antisense AAACUGUCUCGAAACCAGUUU; sense: DNA at AGT, 2'-fluoro at CU, [invAb] at 5' end, 3' end, backbone not given here; antisense: sugars from the 5' end rrrffmffffmmmmffmmfmm, backbone not given here)	9 ± 21%	56 ± 2%
